Experimental data from patent US6737383B1, “Herbicidal oxadiazolidines” (priority 1999, dated 2004).

Columns and labels:
blackgrass = assay: Test B pre/postemergence blackgrass; assay type: in vivo, Alopecurus myosuroides
Procedure, shortened: (§1)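 Response is a visual 0-to-10 score relative to untreated plants, where 0 means no effect and 10 means complete control, taken twelve to sixteen days after application. Treatments went onto soil at planting and onto foliage of 1- to 4-leaf plants, using a surfactant-containing non-phytotoxic solvent.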

surinam grass = assay: Test B pre/postemergence surinam grass; assay type: in vivo, Brachiaria decumbens
Procedure, shortened: as §1

cocklebur = assay: Test B pre/postemergence cocklebur; assay type: in vivo, Xanthium strumarium
Procedure, shortened: as §1

corn = assay: Test B pre/postemergence corn; assay type: in vivo, Zea mays
Procedure, shortened: as §1

crabgrass = assay: Test B pre/postemergence crabgrass; assay type: in vivo, Digitaria sanguinalis
Procedure, shortened: as §1

giant foxtail = assay: Test B pre/postemergence giant foxtail; assay type: in vivo, Setaria faberii
Procedure, shortened: as §1

morningglory = assay: Test B pre/postemergence morningglory; assay type: in vivo, Ipomoea hederacea
Procedure, shortened: as §1

pigweed = assay: Test B pre/postemergence pigweed; assay type: in vivo, Amaranthus retroflexus
Procedure, shortened: as §1

rape = assay: Test B pre/postemergence rape; assay type: in vivo, Brassica napus
Procedure, shortened: as §1

soybean = assay: Test B pre/postemergence soybean; assay type: in vivo, Glycine max
Procedure, shortened: as §1

sugar beet = assay: Test B pre/postemergence sugar beet; assay type: in vivo, Beta vulgaris
Procedure, shortened: as §1

velvetleaf = assay: Test B pre/postemergence velvetleaf; assay type: in vivo, Abutilon theophrasti
Procedure, shortened: as §1

wild oat = assay: Test B pre/postemergence wild oat; assay type: in vivo, Avena fatua
Procedure, shortened: as §1

purple nutsedge = assay: Test B pre/postemergence purple nutsedge; assay type: in vivo, Cyperus rotundus
Procedure, shortened: as §1

smallflower flatsedge = assay: Test B flood test smallflower flatsedge; assay type: in vivo, Cyperus difformis
Procedure, shortened: (§2)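 Flood test on plants grown to the 2-leaf stage; treated plants kept in greenhouse twelve to sixteen days, then visually rated against controls on a 0 (no effect) to 10 (complete control) scale.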

bamyardgrass = assay: Test B flood test barnyardgrass; assay type: in vivo, Echinochloa crus-galli
Procedure, shortened: as §2

[1] = Postemergence, Rate 62 g/ha, scale 0 to 10, 0 is no effect, 10 is complete control
[2] = Postemergence, Rate 250 g/ha, scale 0 to 10, 0 no effect, 10 complete control
[3] = Preemergence, Rate 62 g/ha, scale 0 to 10 (0 no effect, 10 complete control)
[4] = Preemergence, Rate 125 g/ha, scale 0 to 10 (0 no effect, 10 complete control)
[5] = Preemergence, Rate 250 g/ha, scale of 0 to 10 where 0 is no effect and 10 is complete control
[6] = Preemergence, Rate 500 g/ha, scale 0 (no effect) to 10 (complete control)
[7] = Rate 125 g/ha, Postemergence, scale 0 to 10, 0 no effect, 10 complete control
[8] = Rate 500 g/ha, Postemergence, scale 0 to 10, 0 no effect, 10 complete control
[9] = Rate 125 g/ha, Postemergence section (flood test species), scale 0 to 10, 0 no effect, 10 complete control
[10] = Rate 500 g/ha, listed under Postemergence (flood test species), scale 0 to 10, 0 no effect, 10 complete control
[11] = flood test, listed under Postemergence, Rate 250 g/ha, scale 0 to 10, 0 no effect, 10 complete control

Compound: CC(C)N(C(=O)n1oc(=O)n(Cc2ccccc2)c1=O)c1ccc(F)cc1F [Compound 79]
- Blackgrass plant response rating (blackgrass; [1]): 0
- Blackgrass plant response rating (blackgrass; [2]): 3
- Blackgrass plant response rating (blackgrass; [3]): 0
- Plant response rating, Blackgrass (blackgrass; [4]): 2
- Plant response rating, Blackgrass (blackgrass; [5]): 6
- Blackgrass plant response rating (blackgrass; [6]): 6
- Blackgrass plant response rating (blackgrass; [7]): 0
- Blackgrass plant response rating (blackgrass; [8]): 3
- B. signalgrass plant response rating (surinam grass; [1]): 0
- B. signalgrass plant response rating (surinam grass; [2]): 0
- B. signalgrass plant response rating (surinam grass; [3]): 2
- Plant response rating, B. signalgrass (surinam grass; [4]): 0
- Plant response rating, B. signalgrass (surinam grass; [5]): 3
- B. signalgrass plant response rating (surinam grass; [6]): 5
- B. signalgrass plant response rating (surinam grass; [7]): 0
- B. signalgrass plant response rating (surinam grass; Rate 500 g/ha, Postemergence, scale of 0 to 10 where 0 is no effect and 10 is complete control): 0
- Cocklebur plant response rating (cocklebur; [1]): 0
- Cocklebur plant response rating (cocklebur; [2]): 2
- Cocklebur plant response rating (cocklebur; [3]): 0
- Plant response rating, Cocklebur (cocklebur; [4]): 0
- Plant response rating, Cocklebur (cocklebur; [5]): 0
- Cocklebur plant response rating (cocklebur; [6]): 0
- Cocklebur plant response rating (cocklebur; [7]): 0
- Cocklebur plant response rating (cocklebur; [8]): 2
- Corn plant response rating (corn; [1]): 0
- Corn plant response rating (corn; [2]): 0
- Corn plant response rating (corn; [3]): 0
- Plant response rating, Corn (corn; [4]): 0
- Plant response rating, Corn (corn; [5]): 0
- Corn plant response rating (corn; [6]): 0
- Corn plant response rating (corn; [7]): 0
- Corn plant response rating (corn; [8]): 0
- Crabgrass plant response rating (crabgrass; [1]): 3
- Crabgrass plant response rating (crabgrass; [2]): 4
- Crabgrass plant response rating (crabgrass; [3]): 2
- Plant response rating, Crabgrass (crabgrass; [4]): 7
- Plant response rating, Crabgrass (crabgrass; [5]): 9
- Crabgrass plant response rating (crabgrass; [6]): 10
- Crabgrass plant response rating (crabgrass; [7]): 4
- Crabgrass plant response rating (crabgrass; [8]): 8
- Giant foxtail plant response rating (giant foxtail; [1]): 0
- Giant foxtail plant response rating (giant foxtail; [2]): 3
- Giant foxtail plant response rating (giant foxtail; [3]): 4
- Plant response rating, Giant foxtail (giant foxtail; [4]): 8
- Plant response rating, Giant foxtail (giant foxtail; [5]): 9
- Giant foxtail plant response rating (giant foxtail; [6]): 9
- Giant foxtail plant response rating (giant foxtail; [7]): 2
- Giant foxtail plant response rating (giant foxtail; [8]): 4
- Morningglory plant response rating (morningglory; [1]): 5
- Morningglory plant response rating (morningglory; [2]): 7
- Morningglory plant response rating (morningglory; [3]): 0
- Plant response rating, Morningglory (morningglory; [4]): 0
- Plant response rating, Morningglory (morningglory; [5]): 0
- Morningglory plant response rating (morningglory; [6]): 0
- Morningglory plant response rating (morningglory; [7]): 5
- Morningglory plant response rating (morningglory; [8]): 8
- Redroot pigweed plant response rating (pigweed; [1]): 0
- Redroot pigweed plant response rating (pigweed; [2]): 3
- Redroot pigweed plant response rating (pigweed; [3]): 0
- Plant response rating, Redroot pigweed (pigweed; [4]): 4
- Plant response rating, Redroot pigweed (pigweed; [5]): 7
- Redroot pigweed plant response rating (pigweed; [6]): 10
- Redroot pigweed plant response rating (pigweed; [7]): 0
- Redroot pigweed plant response rating (pigweed; [8]): 4
- Rape plant response rating (rape; [1]): 0
- Rape plant response rating (rape; [2]): 0
- Rape plant response rating (rape; [3]): 0
- Plant response rating, Rape (rape; [4]): 0
- Plant response rating, Rape (rape; [5]): 0
- Rape plant response rating (rape; [6]): 0
- Rape plant response rating (rape; [7]): 0
- Rape plant response rating (rape; [8]): 3
- Soybean plant response rating (soybean; [1]): 0
- Soybean plant response rating (soybean; [2]): 1
- Soybean plant response rating (soybean; [3]): 0
- Plant response rating, Soybean (soybean; [4]): 0
- Plant response rating, Soybean (soybean; [5]): 0
- Soybean plant response rating (soybean; [6]): 0
- Soybean plant response rating (soybean; [7]): 1
- Soybean plant response rating (soybean; [8]): 2
- Sugarbeets plant response rating (sugar beet; [1]): 3
- Sugarbeets plant response rating (sugar beet; [2]): 4
- Sugarbeets plant response rating (sugar beet; [3]): 0
- Plant response rating, Sugarbeets (sugar beet; [4]): 1
- Plant response rating, Sugarbeets (sugar beet; [5]): 1
- Sugarbeets plant response rating (sugar beet; [6]): 2
- Sugarbeets plant response rating (sugar beet; [8]): 6
- Velvetleaf plant response rating (velvetleaf; [1]): 0
- Velvetleaf plant response rating (velvetleaf; [2]): 0
- Velvetleaf plant response rating (velvetleaf; [3]): 0
- Plant response rating, Velvetleaf (velvetleaf; [4]): 0
- Plant response rating, Velvetleaf (velvetleaf; [5]): 0
- Velvetleaf plant response rating (velvetleaf; [6]): 3
- Velvetleaf plant response rating (velvetleaf; [7]): 0
- Velvetleaf plant response rating (velvetleaf; [8]): 3
- Wild oats plant response rating (wild oat; [1]): 0
- Wild oats plant response rating (wild oat; [2]): 0
- Wild oats plant response rating (wild oat; [3]): 0
- Plant response rating, Wild oats (wild oat; [4]): 0
- Plant response rating, Wild oats (wild oat; [5]): 3
- Wild oats plant response rating (wild oat; [6]): 4
- Wild oats plant response rating (wild oat; [7]): 0
- Wild oats plant response rating (wild oat; [8]): 0
- Nutsedge plant response rating (purple nutsedge; [1]): 0
- Nutsedge plant response rating (purple nutsedge; [2]): 0
- Nutsedge plant response rating (purple nutsedge; [3]): 0
- Plant response rating, Nutsedge (purple nutsedge; [4]): 0
- Plant response rating, Nutsedge (purple nutsedge; [5]): 0
- Nutsedge plant response rating (purple nutsedge; [6]): 0
- Nutsedge plant response rating (purple nutsedge; [7]): 0
- Nutsedge plant response rating (purple nutsedge; [8]): 0
- S. Flatsedge plant response rating (smallflower flatsedge; [1]): 0
- S. Flatsedge plant response rating (smallflower flatsedge; [9]): 0
- S. Flatsedge plant response rating (smallflower flatsedge; [10]): 10
- S. Flatsedge plant response rating (smallflower flatsedge; [11]): 4
- Barnyardgrass plant response rating (bamyardgrass; [1]): 0
- Barnyardgrass plant response rating (bamyardgrass; [9]): 0
- Barnyardgrass plant response rating (bamyardgrass; [10]): 9
- Barnyardgrass plant response rating (bamyardgrass; [11]): 3
